Laboratory results from article PMC5607274, “An iterative compound screening contest method for identifying target protein inhibitors using the tyrosine-protein kinase Yes” (Scientific Reports, 2017).

Biological target: T1, human recombinant Yes [a.a. 2–543 (end)] (Homo sapiens, UniProt P07947)
T1 construct: human recombinant Yes [a.a; 2–543 (end)]; purchased BPS Bioscience 40488
Test: ADP-Glo kinase assay, inhibition rates of Yes phosphorylation activity (first and second screening)
Format: biochemical
Details: first screening; mean of n = 4 wells; 10 μmol L−1 compound
In short: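 ADP-Glo luminescence measured inhibition of human recombinant Yes (a.a. 2–543) phosphorylation activity. In the first screen, each compound ran in 4 wells and inhibition rates were averaged. The second screen retested hits as compounds dissolved from fresh powder.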

T1 sequence (P07947 2-543): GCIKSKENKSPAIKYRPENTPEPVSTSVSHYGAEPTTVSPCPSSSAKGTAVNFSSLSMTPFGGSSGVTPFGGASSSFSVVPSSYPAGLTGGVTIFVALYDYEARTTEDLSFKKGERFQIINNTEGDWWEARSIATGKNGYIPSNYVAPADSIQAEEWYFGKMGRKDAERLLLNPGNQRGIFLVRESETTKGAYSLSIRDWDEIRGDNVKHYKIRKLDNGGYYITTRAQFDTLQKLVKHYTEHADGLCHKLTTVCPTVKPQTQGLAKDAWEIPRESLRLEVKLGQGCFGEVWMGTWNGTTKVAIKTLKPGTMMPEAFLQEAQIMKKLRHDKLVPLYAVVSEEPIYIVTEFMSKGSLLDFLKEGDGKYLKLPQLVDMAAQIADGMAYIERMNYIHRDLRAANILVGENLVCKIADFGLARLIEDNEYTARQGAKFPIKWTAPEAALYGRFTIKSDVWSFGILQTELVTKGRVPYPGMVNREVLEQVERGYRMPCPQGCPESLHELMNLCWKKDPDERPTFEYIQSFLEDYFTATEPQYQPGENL

Row | First screening IR (inhibition rate) [%] | SMILES
1 | 5 | Cn1nc([N+](=O)[O-])c2c(-c3nc4ccccc4n3C)c(N)n(C3CCCCC3)c2c1=O [Compound Z56852588]
2 | 33 | CC1CCN(Cc2ncc(-c3cccc(Cl)c3)o2)CC1n1ccnc1 (stereo not shown) [Compound Z1492998619]
3 | 0 | Cc1cc(C)c2c(c1)C(O)(CC(=O)c1ccccc1)C(=O)N2 (stereo not shown) [Compound Z1013750782]
4 | 17 | COc1ccc(C(=O)N[C@@H]2C(=O)Nc3c(c(C)nn3C)[C@H]2c2cccc(C(F)(F)F)c2)cc1OC [Compound Z98361471]
5 | -1 | O=P(/C=C(\Cl)c1ccccc1)(/C=C(/Cl)c1ccccc1)Nc1cccc(S(=O)(=O)NCc2ccco2)c1 [Compound Z56773378]
6 | -13 | Cc1sc2nc(CN3CCOCC3)nc(Oc3ccc(NC(=O)c4ccc(C(C)(C)C)cc4)cc3)c2c1C [Compound Z31089732]
7 | 18 | CCOc1ccc(C(=O)Nc2ccc3c(c2)C(=O)NC3)cc1OCC [Compound Z943285536]
8 | 24 | Cc1ccc(-c2nn3c(=O)c4c(-c5cccs5)csc4nc3c3ccccc23)cc1 [Compound Z55164116]
9 | 13 | Cc1nc(-c2ccc(Br)cc2)nc(NCCO)c1C [Compound Z1037335626]
10 | 20 | C=CCN1C(=O)c2ccc(C(=O)Nc3cc(C)cc(C)c3)cc2C1=O [Compound Z30888972]
11 | -1 | Cc1ccc(S(=O)(=O)CCCS(=O)(=O)N(C)C)c(C)c1 [Compound Z1134191614]
12 | 30 | Cn1ccnc1C(Nc1cnn(Cc2ccccc2)c(=O)c1Cl)c1ccccc1 (stereo not shown) [Compound Z185383718]
13 | -17 | COc1ccc(Br)c(C(=O)NCc2ccc(-c3csc(C)n3)cc2)c1 [Compound Z131231284]
14 | 42 | COCCN(CCC#N)S(=O)(=O)c1ccccc1S(C)(=O)=O [Compound Z1116705979]
15 | 6 | COc1ccc2ccc(OCc3nc(N)nc(N(C)C)n3)cc2c1 [Compound Z168975100]
16 | 8 | CCN(CC)S(=O)(=O)c1ccc(N2CCC(NC(C)C)CC2)c([N+](=O)[O-])c1 [Compound Z1082766798]
17 | 0 | O=C(Nc1ccc(F)cc1)c1nnc(CSc2ncc(-c3ccccc3)[nH]2)s1 [Compound Z325218452]
18 | 2 | COC(=O)c1ccc2c(=O)[nH]c(COC(=O)Cc3ccsc3)nc2c1 [Compound Z54469331]
19 | -4 | O=C1Cc2cc(S(=O)(=O)N3CCCc4cccc(OC(F)F)c43)ccc2N1 [Compound Z815677014]
20 | 10 | CN(C)c1nc2ccc(NC(=O)c3csc(-c4ccoc4)n3)cc2o1 [Compound Z1404550995]
21 | -8 | CCC(C)NC(=O)c1ccc2c(=O)n(CC(C)C)c3nnc(SCC(=O)Nc4ccccc4C)n3c2c1 (stereo not shown) [Compound Z1157725045]
22 | -1 | Cc1ccc(-c2nc(N)sc2C)s1 [Compound Z381381388]
23 | 17 | COc1ccccc1NC(=O)c1ccc(NC(=O)COc2ccc(-n3cnnn3)cc2)cc1 [Compound Z25181441]
24 | 0 | O=C(Nc1nc2cc(C(F)(F)F)ccc2n1Cc1ccco1)c1ccc2n[nH]nc2c1 [Compound Z245503032]
25 | 1 | COC(=O)c1cc(S(=O)(=O)Oc2ccc3c(C(C)C)cc(=O)oc3c2)cn1C [Compound Z1309300961]
26 | 2 | COc1ccc(Br)c(CN(C)C(C)C2CCN(C)CC2)c1 (stereo not shown) [Compound Z1682981267]

Row | First screening IR (inhibition rate) [%] | SMILES
27 | 14 | CCCN(CCC)S(=O)(=O)c1ccc(S(C)(=O)=O)cc1 [Compound Z285665192]
28 | -1 | COc1cccc(OCCN2CCN(c3cc(C(C)(C)C)nc4c(-c5ccc(F)cc5)c(C)nn34)CC2)c1 [Compound Z439257332]
29 | 0 | Cc1noc(C)c1CCC(=O)Nc1nc2cc(C(F)(F)F)ccc2n1Cc1ccco1 [Compound Z193270258]
30 | -3 | CCOc1cc(N2CCOCC2)c(OCC)cc1NC(=O)CSc1nnc(-c2ccc3c(c2)OCO3)n1-c1ccccc1 [Compound Z16253844]
31 | 9 | Nc1nc(NCC(=O)O)nc(NCC2CCCO2)c1[N+](=O)[O-] (stereo not shown) [Compound Z244561600]
32 | -3 | Cc1ccc(S(=O)(=O)C2CS(=O)(=O)CC2O)cc1 (stereo not shown) [Compound Z56757815]
33 | -12 | N#CCCn1ncc2c(NC3CCCC(C(F)(F)F)C3)ncnc21 (stereo not shown) [Compound Z990858522]
34 | 13 | CS(=O)(=O)c1ccc(N2CCCC2)c(S(C)(=O)=O)c1 [Compound Z168801896]
35 | 25 | O=C1Nc2ccccc2/C1=C\c1ccc(O)cc1 [Compound Z44305789]
36 | -1 | CCN(CC)CCNC(=O)c1ccc(NC(=O)C2CCN(c3ncnc4sc(C)c(C)c34)CC2)cc1 [Compound Z79604730]
37 | 20 | Cc1cccc(C)c1OCc1nc2c3c(-c4ccccc4)c(-c4ccccc4)oc3ncn2n1 [Compound Z56793398]
38 | -8 | CN(C)S(=O)(=O)c1ccc(S(C)(=O)=O)cc1 [Compound Z300114426]
39 | 12 | Cc1nc(-c2ccncc2)[nH]c(=O)c1CCC(=O)NCc1ccncc1 [Compound Z873001918]
40 | 36 | O=C(c1ccoc1)N1CCC(NCc2cn[nH]c2-c2ccc(F)cc2)CC1 [Compound Z401874244]
41 | 10 | COc1ccc(OC)c(-n2c(-c3ccc(C)cc3)nn(CN3CCN(c4ccc(O)cc4)CC3)c2=S)c1 [Compound Z44104256]
42 | -5 | CCCn1c(=O)[nH]c(=O)c2c(C(=O)Nc3ccccc3N3CCOCC3)cc(C3CC3)nc21 [Compound Z337770612]
43 | 6 | Cc1cc(C(=O)COc2ncnc3ccccc23)c(C)n1CC(F)(F)F [Compound Z18537891]
44 | 7 | CN(c1cc(C#N)ccn1)S(=O)(=O)c1ccccc1S(C)(=O)=O [Compound Z1833478806]
45 | -5 | CN(C1CCS(=O)(=O)C1)S(=O)(=O)c1ccc(F)cc1 (stereo not shown) [Compound Z56813369]
46 | 8 | CCN(C1CCS(=O)(=O)C1)S(=O)(=O)c1c(C)c(C)c(C)c(C)c1C (stereo not shown) [Compound Z45467174]
47 | 6 | COc1cc(NC(=O)COC(=O)c2cc(-c3cccs3)nc3onc(C)c23)cc(OC)c1 [Compound Z218834328]
48 | 5 | Cc1sc2ncnc(N/N=C/c3cccc(Br)c3)c2c1C [Compound Z49890557]
49 | -6 | Cc1nn(-c2ccccc2)c2nc(-c3ccccc3)cc(C(F)(F)F)c12 [Compound Z55426459]
50 | -5 | CCOc1ccc(CCNC(=O)c2cc3ccccc3[nH]2)cc1OCC [Compound Z28450151]
51 | 6 | NCC1CCCS1(=O)=O (stereo not shown) [Compound Z1203586543]
52 | -20 | CNc1ccc(Nc2nccc(C(F)(F)F)n2)cn1 [Compound Z729056288]
